Experimental data taken from article PMC11620482, “Phase 1 drug-drug interaction study to assess the effect of CYP3A4 inhibition and pan-CYP induction on the pharmacokinetics and safety of fosmanogepix in healthy participants” (Antimicrobial Agents and Chemotherapy, 2024).
Read-outs that look alike come from different tables or passages of the source.

Legend:
CYP2D6 = settings: cited from earlier work
[1] = system: phosphatidylinositol glycan anchor biosynthesis class W (PIGW); parameters: method as in PMID 33105672, PMID 34626339; settings: cited from earlier work
CYP2C9 = settings: cited from earlier work
CYP2A6 = settings: cited from earlier work
[2] = Plasma pharmacokinetics of MGX and FMGX (noncompartmental analysis), phase 1 fixed-sequence DDI study with itraconazole or rifampin; type: in vivo, human; settings: for Vd: read-out: MGX Vz; for Tmax: median (range)
Method: In cohort 1, MGX plasma samples were collected at specified time points daily on days 1–4, once every 2 days on days 6–14, daily for 3 days from days 18 to 20, once every 2 days from days 21 to 29, and then on day 31, while itraconazole samples were collected at specified time points on days 19, 25, and 31. […] PK parameters were calculated using noncompartmental analysis from the plasma concentration-time data for MGX and FMGX. Primary PK parameters were maximum observed plasma concentration (Cmax), AUC from time 0 to infinity (AUC0-inf), and AUC up to time t (AUC0-t, where t was the last time point with concentrations above the lower limit of quantitation). […] Secondary PK parameters were time to attain Cmax (Tmax), AUC from time 0 to 23 hours (AUC0-23), terminal elimination half-life after the last dosing on the day (t1/2), clearance (CL), volume of distribution at terminal phase (Vz), and terminal phase rate constant after the last dosing on the day (λz).

CYP1A2 = settings: cited from earlier work
CYP3A4 = settings: cited from earlier work
[3] = mice infected with C. albicans and C. glabrata; cited from earlier work
human CYPs = settings: cited from earlier work
CYP2B6 = settings: cited from earlier work
CYP2C19 = settings: cited from earlier work
[4] = system: recombinant human CYP (rCYP) enzymes; settings: cited from earlier work
CYP2C8 = settings: cited from earlier work
CYP2E1 = settings: cited from earlier work

For Nc1ncccc1-c1cc(Cc2ccc(COc3ccccn3)cc2)no1 [MGX, manogepix], the “Reversible inhibition of CYP2D6” value (CYP2D6) is listed as “observed”, the “Time-dependent inhibition of CYP2D6” value (CYP2D6) is listed as “no time-dependent inhibition” and the “Inhibition of PIGW, closest mammalian ortholog of GWT1” value [1] is listed as “not inhibited”. The “Reversible inhibition of CYP2C9” value (CYP2C9) was “observed”, the “Time-dependent inhibition of CYP2C9” value (CYP2C9) was “no time-dependent inhibition” and the “Time-dependent inhibition of CYP2A6” value (CYP2A6) was “no time-dependent inhibition”. The “MGX Vz” value ([2]; FMGX only 1000 mg BID IV, D1, Cohort 2, n = 17, geometric mean (geometric %CV)) was 190 (40.8) L, the AUC(0-inf) ([2]; human, in vivo, FMGX 500 mg BID IV D18 + ITR 200 mg QD PO D15-30, Cohort 1, n = 16, geometric mean (geometric %CV), read-out: MGX AUC(0-inf)) was 458 µg·h/mL and the AUC(0-t) ([2]; human, in vivo, FMGX 500 mg BID IV D18 + ITR 200 mg QD PO D15-30, Cohort 1, n = 16, geometric mean (geometric %CV), read-out: MGX AUC(0-t)) was 421 µg·h/mL. The Cmax ([2]; human, in vivo, FMGX 500 mg BID IV D18 + ITR 200 mg QD PO D15-30, Cohort 1, n = 16, geometric mean (geometric %CV), read-out: MGX Cmax) was 7060 ng/mL, the Vd ([2]; human, in vivo, FMGX 500 mg BID IV D18 + ITR 200 mg QD PO D15-30, Cohort 1, n = 16, geometric mean (geometric %CV)) was 195 L and the AUC(0-inf) ([2]; human, in vivo, FMGX 500 mg BID IV D18 + ITR 200 mg QD PO D15–30, Cohort 1, n = 16, read-out: MGX AUC(0-inf), least squares geometric mean) was 458 µg·h/mL. The AUC(0-t) ([2]; human, in vivo, FMGX 500 mg BID IV D18 + ITR 200 mg QD PO D15–30, Cohort 1, n = 16, read-out: MGX AUC(0-t), least squares geometric mean) was 421 µg·h/mL, the Cmax ([2]; human, in vivo, FMGX 500 mg BID IV D18 + ITR 200 mg QD PO D15–30, Cohort 1, n = 16, read-out: MGX Cmax, least squares geometric mean) was 7060 ng/mL and the AUC(0-inf) ([2]; human, in vivo, FMGX 1,000 mg BID IV D24 + RIF 600 mg QD PO D15–33, Cohort 2, n = 17, geometric mean (geometric %CV), read-out: MGX AUC(0-inf)) was 450 µg·h/mL. It also gave an AUC(0-t) ([2]; human, in vivo, FMGX 1,000 mg BID IV D24 + RIF 600 mg QD PO D15–33, Cohort 2, n = 17, geometric mean (geometric %CV), read-out: MGX AUC(0-t)) of 436 µg·h/mL, a Cmax ([2]; human, in vivo, FMGX 1,000 mg BID IV D24 + RIF 600 mg QD PO D15–33, Cohort 2, n = 17, geometric mean (geometric %CV), read-out: MGX Cmax) of 12100 ng/mL and a Vd ([2]; human, in vivo, FMGX 1,000 mg BID IV D24 + RIF 600 mg QD PO D15–33, Cohort 2, n = 17, geometric mean (geometric %CV)) of 205 L. It also gave an AUC(0-inf) ([2]; human, in vivo, FMGX 1,000 mg BID IV D24 + RIF 600 mg QD PO D15–33, Cohort 2, n = 17, read-out: MGX AUC(0-inf), least squares geometric mean) of 450 µg·h/mL, an AUC(0-t) ([2]; human, in vivo, FMGX 1,000 mg BID IV D24 + RIF 600 mg QD PO D15–33, Cohort 2, n = 17, read-out: MGX AUC(0-t), least squares geometric mean) of 436 µg·h/mL and a Cmax ([2]; human, in vivo, FMGX 1,000 mg BID IV D24 + RIF 600 mg QD PO D15–33, Cohort 2, n = 17, read-out: MGX Cmax, least squares geometric mean) of 12100 ng/mL. The half-life ([2]; human, in vivo, Terminal elimination half-life for MGX) was roughly 78 h, the AUC(0-inf) ([2]; human, in vivo, iv, 500 mg, FMGX only 500 mg BID IV, D1, Cohort 1, n = 16, geometric mean (geometric %CV), read-out: MGX AUC(0-inf)) was 460 µg·h/mL and the AUC(0-t) ([2]; human, in vivo, iv, 500 mg, FMGX only 500 mg BID IV, D1, Cohort 1, n = 16, geometric mean (geometric %CV), read-out: MGX AUC(0-t)) was 429 µg·h/mL. It also gave a Cmax ([2]; human, in vivo, iv, 500 mg, FMGX only 500 mg BID IV, D1, Cohort 1, n = 16, geometric mean (geometric %CV), read-out: MGX Cmax) of 6940 ng/mL, a Vd ([2]; human, in vivo, iv, 500 mg, FMGX only 500 mg BID IV, D1, Cohort 1, n = 16, geometric mean (geometric %CV)) of 185 L and an AUC(0-inf) ([2]; human, in vivo, iv, 500 mg, FMGX only 500 mg BID IV, D1, Cohort 1, n = 16, read-out: MGX AUC(0-inf), least squares geometric mean) of 460 µg·h/mL. For the same molecule, the AUC(0-t) ([2]; human, in vivo, iv, 500 mg, FMGX only 500 mg BID IV, D1, Cohort 1, n = 16, read-out: MGX AUC(0-t), least squares geometric mean) was 429 µg·h/mL, the Cmax ([2]; human, in vivo, iv, 500 mg, FMGX only 500 mg BID IV, D1, Cohort 1, n = 16, read-out: MGX Cmax, least squares geometric mean) was 6940 ng/mL and the clearance ([2]; human, in vivo, iv, 500 mg, MGX CL) was 27.7 mL/min. The half-life ([2]; human, in vivo, iv, 500 mg, MGX t1/2) was 77.3 h, the “MGX CL” value ([2]; human, in vivo, iv, 1000 mg) was 1,862 (18.5) mL/h and the AUC(0-inf) ([2]; human, in vivo, iv, 1000 mg, FMGX only 1000 mg BID IV, D1, Cohort 2, n = 17, geometric mean (geometric %CV), read-out: MGX AUC(0-inf)) was 822 µg·h/mL. The AUC(0-t) ([2]; human, in vivo, iv, 1000 mg, FMGX only 1000 mg BID IV, D1, Cohort 2, n = 17, geometric mean (geometric %CV), read-out: MGX AUC(0-t)) was 772 µg·h/mL, the Cmax ([2]; human, in vivo, iv, 1000 mg, FMGX only 1000 mg BID IV, D1, Cohort 2, n = 17, geometric mean (geometric %CV), read-out: MGX Cmax) was 13900 ng/mL and the AUC(0-inf) ([2]; human, in vivo, iv, 1000 mg, FMGX only 1,000 mg BID IV, D1, Cohort 2, n = 17, read-out: MGX AUC(0-inf), least squares geometric mean) was 822 µg·h/mL. For the same molecule, the AUC(0-t) ([2]; human, in vivo, iv, 1000 mg, FMGX only 1,000 mg BID IV, D1, Cohort 2, n = 17, read-out: MGX AUC(0-t), least squares geometric mean) was 772 µg·h/mL, the Cmax ([2]; human, in vivo, iv, 1000 mg, FMGX only 1,000 mg BID IV, D1, Cohort 2, n = 17, read-out: MGX Cmax, least squares geometric mean) was 13900 ng/mL and the half-life ([2]; human, in vivo, iv, 1000 mg, MGX t1/2) was 70.7 h. It also gave a Tmax ([2]; human, in vivo, FMGX 500 mg BID IV D18 + ITR 200 mg QD PO D15-30, Cohort 1, n = 16) of 12 h, a Tmax ([2]; human, in vivo, FMGX only 500 mg BID IV, D1, Cohort 1, n = 16) of 12 h and a Tmax ([2]; human, in vivo, FMGX only 1000 mg BID IV, D1, Cohort 2, n = 17) of 12 h. The “Reversible inhibition of CYP1A2” value (CYP1A2) was “observed”, the “Time-dependent inhibition of CYP1A2” value (CYP1A2) was “no time-dependent inhibition” and the “Reversible inhibition of CYP3A4” value (CYP3A4) was “observed”. The “Time-dependent inhibition of CYP3A4” value (CYP3A4) was “weak time-dependent inhibition”, the “Exposure (AUC) and half-life of MGX after pre-administration of 1-aminobenzotriazole” value [3] was “increase” and the “Reversible inhibition, other CYP isoforms” value (human CYPs) was “Weak or no inhibition”. The “Reversible inhibition of CYP2B6” value (CYP2B6) was “observed”, the “Time-dependent inhibition of CYP2B6” value (CYP2B6) was “weak time-dependent inhibition” and the “Reversible inhibition of CYP2C19” value (CYP2C19) was “observed”. For the same molecule, the “Time-dependent inhibition of CYP2C19” value (CYP2C19) was “no time-dependent inhibition”, the “Enzymes involved in formation of MGX-derived metabolites” value [4] was “multiple recombinant human CYP (rCYP) enzymes were involved” and the “Reversible inhibition of CYP2C8” value (CYP2C8) was “observed”. The “Time-dependent inhibition of CYP2C8” value (CYP2C8) was “no time-dependent inhibition” and the “Time-dependent inhibition of CYP2E1” value (CYP2E1) was “no time-dependent inhibition”.
